Assay results reported in ChEMBL document CHEMBL6115031, “Structure-Based Optimization of Moracin M as Potent and Selective PDE4 Inhibitors with Antipsoriasis Effects” (J Med Chem, 2025).
Active and inactive are the calls of the source. The rule behind the calls is not given here.

How the values were obtained:
[1] = molecular target: T1, 3',5'-cyclic-AMP phosphodiesterase 4D (Homo sapiens, UniProt Q08499); assay: Inhibition of human PDE4D2 (86 to 413 residues) extracted from Escherichia coli BL21 cells using 3H-cAMP/3H-cGMP as substrate preincubated with compound for 15 mins followed by substrate addition by liquid scintillation counter
T1 sequence (Q08499 whole entry, the tested form may be a part): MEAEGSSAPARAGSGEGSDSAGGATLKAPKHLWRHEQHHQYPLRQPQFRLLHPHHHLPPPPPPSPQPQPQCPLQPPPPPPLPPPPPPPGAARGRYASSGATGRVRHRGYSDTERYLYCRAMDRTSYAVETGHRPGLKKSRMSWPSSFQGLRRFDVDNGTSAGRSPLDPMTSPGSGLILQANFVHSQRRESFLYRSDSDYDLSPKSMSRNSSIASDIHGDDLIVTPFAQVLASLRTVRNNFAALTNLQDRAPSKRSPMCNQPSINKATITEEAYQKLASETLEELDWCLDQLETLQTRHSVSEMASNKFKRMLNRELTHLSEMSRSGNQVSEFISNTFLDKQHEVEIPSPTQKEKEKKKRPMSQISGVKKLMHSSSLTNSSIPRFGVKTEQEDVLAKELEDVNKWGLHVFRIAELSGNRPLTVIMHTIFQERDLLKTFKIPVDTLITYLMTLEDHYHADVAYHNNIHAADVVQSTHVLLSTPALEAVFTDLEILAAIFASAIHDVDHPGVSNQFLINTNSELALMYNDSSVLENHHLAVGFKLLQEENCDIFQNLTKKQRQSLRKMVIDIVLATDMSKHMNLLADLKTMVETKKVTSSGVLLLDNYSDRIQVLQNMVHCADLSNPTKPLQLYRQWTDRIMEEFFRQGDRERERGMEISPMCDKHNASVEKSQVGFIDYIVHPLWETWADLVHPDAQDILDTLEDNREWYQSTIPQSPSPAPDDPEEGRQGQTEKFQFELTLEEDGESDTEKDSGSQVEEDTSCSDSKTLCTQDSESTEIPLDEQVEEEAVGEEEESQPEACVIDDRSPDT

[2] = Metabolic stability in rat liver microsomes assessed as half life at 1 uM incubated upto 60 mins in presence of NADPH by LC-MS/MS analysis; type: ADME, Microsome
Mus musculus [3] = assay: Anti-inflammatory activity in IMQ-induced psoriasis in female BALB/c mouse assessed as reduction in CXCL-2 mRNA level at 20 mg/kg administered topically as 0.3 % ointment pretreated with IMQ for 6 hrs followed by compound addition once daily for 7 days by q-PCR analysis; type: functional, organism-based; settings: time 7.0 day
Mus musculus [4] = assay: Anti-inflammatory activity in IMQ-induced psoriasis in female BALB/c mouse assessed as reduction in CCL-20 mRNA level at 20 mg/kg administered topically as 0.3 % ointment pretreated with IMQ for 6 hrs followed by compound addition once daily for 7 days by q-PCR analysis; type: functional, organism-based; settings: time 7.0 day
HaCaT [5] = assay: Anti-psoriasis activity in M5-stimulated human HaCaT cells assessed as restoration of cAMP level at 20 uM incubated for 2 hrs by competitive ELISA; type: functional, cell-based
Mus musculus [6] = assay: Anti-inflammatory activity in IMQ-induced psoriasis in female BALB/c mouse assessed as reduction in IL-6 mRNA level at 20 mg/kg administered topically as 0.3 % ointment pretreated with IMQ for 6 hrs followed by compound addition once daily for 7 days by q-PCR analysis; type: functional, organism-based; settings: time 7.0 day
Mus musculus [7] = assay: Anti-inflammatory activity in IMQ-induced psoriasis in female BALB/c mouse assessed as reduction in IL-1beta mRNA level at 20 mg/kg administered topically as 0.3 % ointment pretreated with IMQ for 6 hrs followed by compound addition once daily for 7 days by q-PCR analysis; type: functional, organism-based; settings: time 7.0 day
Mus musculus [8] = assay: Anti-psoriasis effect in IMQ-induced female BALB/c mouse model assessed as reduction in spinous layer thickness at 20 mg/kg administered topically as 0.3 % ointment pretreated with IMQ for 6 hrs followed by compound addition once daily for 7 days by H and E staining based analysis; type: functional, organism-based; settings: time 7.0 day
Mus musculus [9] = assay: Anti-psoriasis effect in IMQ-induced female BALB/c mouse model assessed as reduction in fibroblast proliferation at 20 mg/kg administered topically as 0.3 % ointment pretreated with IMQ for 6 hrs followed by compound addition once daily for 7 days by H and E staining based analysis; type: functional, organism-based; settings: time 7.0 day
Mus musculus [10] = assay: Anti-inflammatory activity in IMQ-induced psoriasis in female BALB/c mouse assessed as reduction in TNF-alpha mRNA level at 20 mg/kg administered topically as 0.3 % ointment pretreated with IMQ for 6 hrs followed by compound addition once daily for 7 days by q-PCR analysis; type: functional, organism-based; settings: time 7.0 day
Mus musculus [11] = assay: Anti-psoriasis effect in IMQ-induced female BALB/c mouse model assessed as reduction in abnormal rete ridges at 20 mg/kg administered topically as 0.3 % ointment pretreated with IMQ for 6 hrs followed by compound addition once daily for 7 days by H and E staining based analysis; type: functional, organism-based; settings: time 7.0 day
Mus musculus [12] = assay: Anti-psoriasis effect in IMQ-induced female BALB/c mouse model assessed as reduced bleeding in dermal papilla layers at 20 mg/kg administered topically as 0.3 % ointment pretreated with IMQ for 6 hrs followed by compound addition once daily for 7 days by H and E staining based analysis; type: functional, organism-based; settings: time 7.0 day
HaCaT [13] = assay: Inhibition of CREB phosphorylation in human HaCaT cells assessed as increase in pCREB/CREB ratio at 20 uM incubated for 2 hrs by Western blotting analysis; type: cell-based
Mus musculus [14] = assay: Anti-inflammatory activity in IMQ-induced psoriasis in female BALB/c mouse assessed as reduction in IL-17 mRNA level at 20 mg/kg administered topically as 0.3 % ointment pretreated with IMQ for 6 hrs followed by compound addition once daily for 7 days by q-PCR analysis; type: functional, organism-based; settings: time 7.0 day
[15] = molecular target: T1, 3',5'-cyclic-AMP phosphodiesterase 4D; assay: Inhibition of PDE4D (unknown origin)

Row | IC50 [1] [nM] | half-life at 1 µM [2] [min] | Structure (SMILES) | other results
1 | > 100 | – | N[C@@H](CCOc1c(O)ccc2cc(-c3ccc(OC(F)F)c(OCC4CC4)c3)oc12)C(=O)O | –
2 | 23.7 | – | O=C(O)COc1c(O)ccc2cc(-c3ccc(OC(F)F)c(OCC4CC4)c3)oc12 | –
3 | 20.6 | 92.4 | O=C(O)CCCCOc1c(O)ccc2cc(-c3ccc(OC(F)F)c(OCC4CC4)c3)oc12 | –
4 | 23.5 | 3.6 | COC(=O)CCCCOc1c(O)ccc2cc(-c3ccc(OC(F)F)c(OCC4CC4)c3)oc12 | –
5 | > 100 | – | O=C(O)[C@H]1C[C@@H](Oc2c(O)ccc3cc(-c4ccc(OC(F)F)c(OCC5CC5)c4)oc23)CN1 | –
6 | 29.5 | 4.8 | COC(=O)[C@@H](N)CCOc1c(O)ccc2cc(-c3ccc(OC(F)F)c(OCC4CC4)c3)oc12 | –
7 | 22 | 1.2 | O=C(O)CCCOc1c(O)ccc2cc(-c3ccc(OC(F)F)c(OCC4CC4)c3)oc12 | –
8 | – | – | O=C(Nc1c(Cl)cncc1Cl)c1ccc(OC(F)F)c(OCC2CC2)c1 | Activity (Mus musculus [3]): Active; Activity (Mus musculus [4]): Active; Activity (HaCaT [5]): Active; Activity (Mus musculus [6]): Active; Activity (Mus musculus [7]): Active; Activity (Mus musculus [8]): Active; Activity (Mus musculus [9]): Active; Activity (Mus musculus [10]): Active; Activity (Mus musculus [11]): Active; Activity (Mus musculus [12]): Active; inhibition (HaCaT [13]): Active; Activity (Mus musculus [14]): Active
9 | 14.4 | 0.7 | COC(=O)CCCOc1c(O)ccc2cc(-c3ccc(OC(F)F)c(OCC4CC4)c3)oc12 | –
10 | > 100 | – | O=C(O)[C@H]1C[C@H](Oc2c(O)ccc3cc(-c4ccc(OC(F)F)c(OCC5CC5)c4)oc23)CN1 | –
11 | 22.7 | – | CCOC(=O)CCCOc1c(O)ccc2cc(-c3ccc(OC(F)F)c(OCC4CC4)c3)oc12 | –
12 | 43.7 | 3.4 | COC(=O)[C@@H]1C[C@@H](Oc2c(O)ccc3cc(-c4ccc(OC(F)F)c(OCC5CC5)c4)oc23)CN1 | –
13 | > 100 | – | O=C(O)[C@@H]1C[C@H](Oc2c(O)ccc3cc(-c4ccc(OC(F)F)c(OCC5CC5)c4)oc23)CN1 | –
14 | 30 | 3.7 | COC(=O)[C@H]1C[C@H](Oc2c(O)ccc3cc(-c4ccc(OC(F)F)c(OCC5CC5)c4)oc23)CN1 | –
15 | 10.9 | 4 | COC(=O)[C@@H]1C[C@H](Oc2c(O)ccc3cc(-c4ccc(OC(F)F)c(OCC5CC5)c4)oc23)CN1 | –
16 | 39.1 | – | COC(=O)COc1c(O)ccc2cc(-c3ccc(OC(F)F)c(OCC4CC4)c3)oc12 | –
17 | 421 | 21 | Oc1ccc2cc(-c3ccc(OC(F)F)c(OCC4CC4)c3)oc2c1O | IC50 [15]: 421 nM
18 | > 100 | – | O=C(O)[C@@H]1C[C@@H](Oc2c(O)ccc3cc(-c4ccc(OC(F)F)c(OCC5CC5)c4)oc23)CN1 | –
